Columns and labels:
Assay type in all cases: biochemical
[1] = DPPH radical scavenging activity; conditions: 0.4 mM DPPH, room temperature 10 min, absorbance 517 nm; average±SD of three measurements
Experimental: For use in this assay, the samples prepared in the Examples and Comparative Examples were lyophilised and/or dried and pulverized into powders.
The samples were evaluated for DPPH radical scavenging activity according to the Brand-Williams method (Brand-Williams et al., Use of a free radical method to evaluate antioxidant activity. Food Sci. Technol. 28(1): 25-30, (1995)). The samples were added at various concentrations to 0.4 mM DPPH which was then incubated at room temperature for 10 min, followed by measuring absorbance at 517 nm.
(§1) The data are average±standard deviation of three measurements.
For the positive control, the commercially available antioxidant BHA ([…], butylated hydroxy anisole) was employed.

[2] = Superoxide anion radical scavenging activity (NBT reduction method, xanthine/xanthine oxidase system); conditions: 25 mU/mL xanthine oxidase, 0.05 mM xanthine, 0.6 mM NBT, 25° C. 20 min, absorbance 560 nm; average±SD of three measurements
Experimental: Superoxide anion radical scavenging activity was evaluated by the NBT (nitro blue tetrazolium) reduction method in which NBT is reduced by the superoxide anion radicals formed in a xanthine/xanthine oxydase system.
Along with 25 mU/mL of xanthine oxidase, the samples were added at various concentrations to 1.5 mL of a reaction solution containing 50 mM potassium phosphate buffer (pH 7.8), 0.05 mM xanthine, and 0.6 mM NBT, and incubated at 25° C. for 20 min before measuring absorbance at 560 nm.
as §1
For a positive control, the commercially available antioxidant BHA ([…], butylated hydroxy anisole) was employed.

xanthine oxidase = xanthine oxidase (Homo sapiens, UniProt P47989); assay: Inhibitory activity against xanthine oxidase (uric acid production, absorbance at 290 nm); conditions: samples 1 mg/mL, 50 mU/ml xanthine oxidase; average±SD of three measurements
Sequence of xanthine oxidase (P47989 whole entry, species assumed): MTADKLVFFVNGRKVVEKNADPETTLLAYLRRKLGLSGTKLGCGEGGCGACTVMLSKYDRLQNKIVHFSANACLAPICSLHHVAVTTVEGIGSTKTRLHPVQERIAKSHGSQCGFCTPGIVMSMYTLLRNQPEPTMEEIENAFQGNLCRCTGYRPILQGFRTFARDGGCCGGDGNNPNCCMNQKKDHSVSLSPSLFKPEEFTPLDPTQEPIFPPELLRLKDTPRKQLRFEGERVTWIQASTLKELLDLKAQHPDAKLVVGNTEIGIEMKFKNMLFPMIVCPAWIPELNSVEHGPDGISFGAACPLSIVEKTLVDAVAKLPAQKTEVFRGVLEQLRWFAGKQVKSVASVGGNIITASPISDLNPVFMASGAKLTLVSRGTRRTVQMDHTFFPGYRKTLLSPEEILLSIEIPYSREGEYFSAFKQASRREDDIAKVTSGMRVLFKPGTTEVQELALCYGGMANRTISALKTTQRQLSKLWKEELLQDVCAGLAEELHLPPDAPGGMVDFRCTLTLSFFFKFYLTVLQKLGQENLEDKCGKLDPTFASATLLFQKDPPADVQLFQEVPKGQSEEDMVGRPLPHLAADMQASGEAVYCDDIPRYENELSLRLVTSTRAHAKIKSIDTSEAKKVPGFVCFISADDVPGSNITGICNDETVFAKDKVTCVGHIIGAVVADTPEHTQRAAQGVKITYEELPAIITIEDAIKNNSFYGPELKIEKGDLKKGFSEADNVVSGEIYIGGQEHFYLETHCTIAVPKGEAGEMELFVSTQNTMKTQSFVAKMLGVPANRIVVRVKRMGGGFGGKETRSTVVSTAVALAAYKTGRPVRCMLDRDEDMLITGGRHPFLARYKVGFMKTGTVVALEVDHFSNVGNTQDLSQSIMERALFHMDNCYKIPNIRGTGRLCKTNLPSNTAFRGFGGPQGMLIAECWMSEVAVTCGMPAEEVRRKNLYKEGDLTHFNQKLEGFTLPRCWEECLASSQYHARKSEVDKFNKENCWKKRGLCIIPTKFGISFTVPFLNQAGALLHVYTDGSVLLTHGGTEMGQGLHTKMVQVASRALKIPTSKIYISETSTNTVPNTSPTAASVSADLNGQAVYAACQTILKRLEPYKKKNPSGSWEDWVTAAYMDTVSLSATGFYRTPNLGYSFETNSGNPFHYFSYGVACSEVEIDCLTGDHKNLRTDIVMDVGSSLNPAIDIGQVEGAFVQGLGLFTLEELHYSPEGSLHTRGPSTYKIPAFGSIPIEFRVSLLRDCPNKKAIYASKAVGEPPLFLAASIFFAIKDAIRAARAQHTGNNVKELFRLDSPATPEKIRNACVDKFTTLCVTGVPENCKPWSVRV
Experimental: Inhibitory activity against xanthine oxidase was evaluated by the level of the uric acid produced in the xanthine/xanthine oxidase system, which can be quantitatively analyzed by absorbance at 290 nm.
100 μL of 200 mM phosphate buffer (pH 7.5) containing 0.5 mM xanthine and 1 mM EDTA was mixed with 100 μL of the samples (1 mg/mL) to which 50 mU/ml xanthine oxidase was then added to induce the production of uric acid. The produced uric acid was quantitatively analyzed by absorbance at 290 nm.
Allopurinol, a xanthine […] inhibitor used to treat gout, was used as a positive control.

SMILES	DPPH Radical Scavenging Activity IC50 [1]	Superoxide Anion Radical Scavenging Activity IC50 [2]	Xanthine oxidase Inhibition (%) (xanthine oxidase)
COc1ccc(O)c(C(C)(C)C)c1 [BHA, butylated hydroxy anisole]	620 ± 110 µg/mL	1120 ± 240 µg/mL	–
Oc1ncnc2[nH]ncc12 [Allopurinol]	–	–	88.2 ± 2.1%

Source: US8357406B2, “Method for preparing raw material for functional foods from barley or wheat seeds” (priority 2009, dated 2013)
